Where a chain is given by its changes, count along the chain named. “And” between values parts separate entries of the source, which are not always exact repeats. Equal entries are not always repeated. Where two headings read alike, the source gives them in different places.
How the values were obtained:
[1] = molecular target: T1, UCHL3 A11I+L168F (Homo sapiens, UniProt P15374, A11I/L168F); assay: Ub-Rhodamine (Ubiquitin rhodamine cleavage) assay; format: biochemical
T1 sequence (P15374 1-230 A11I/L168F): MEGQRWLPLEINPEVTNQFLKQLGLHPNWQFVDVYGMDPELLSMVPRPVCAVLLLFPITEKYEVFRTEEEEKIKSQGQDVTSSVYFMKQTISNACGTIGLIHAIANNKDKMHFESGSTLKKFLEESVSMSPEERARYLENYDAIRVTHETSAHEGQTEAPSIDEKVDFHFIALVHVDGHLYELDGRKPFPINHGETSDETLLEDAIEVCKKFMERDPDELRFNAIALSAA

[2] = molecular target: T2, UCHL3 (Homo sapiens, UniProt P15374); assay: Ub-Rhodamine (Ubiquitin rhodamine cleavage) assay; format: biochemical; conditions: for normalized UCHL3 activity: independent experiments
T2 sequence (P15374 1-230): T1 sequence (P15374 1-230 A11I/L168F) with I11A, F168L

## C#CCCCNC(=O)c1ccc(-n2cnc(NC(=O)[C@H]3CCN(C#N)C3)c2)cc1 [GK13S]
[1]
  IC50: 11 ± 2 µM
[2]; Fig. 6b, catalytic domain, 1 h preincubation, read-out: IC50 (UCHL3)
  IC50: > 10 µM
[2]; GK13S 0.305176 nM, 1 h preincubation
  normalized UCHL3 activity: 0.9831 and 1.008 and 0.9131 and 1.009
[2]; GK13S 0.610352 nM, 1 h preincubation
  normalized UCHL3 activity: 1.008 and 0.9835 and 0.9698 and 1.0514
[2]; GK13S 1.2207 nM, 1 h preincubation
  normalized UCHL3 activity: 0.9936 and 1.008 and 1.001 and 1.003
[2]; GK13S 2.44141 nM, 1 h preincubation
  normalized UCHL3 activity: 1.012 and 1.01 and 1.135 and 1.033
[2]; GK13S 4.88281 nM, 1 h preincubation
  normalized UCHL3 activity: 1.012 and 1.015 and 0.9843 and 1.023
[2]; GK13S 9.76562 nM, 1 h preincubation
  normalized UCHL3 activity: 0.9453 and 1.0198 and 0.9972 and 1.02
[2]; GK13S 19.5312 nM, 1 h preincubation
  normalized UCHL3 activity: 1.009 and 0.9664 and 0.9869 and 0.9884
[2]; GK13S 39.0625 nM, 1 h preincubation
  normalized UCHL3 activity: 0.985 and 0.9652 and 1.009 and 1.006
[2]; GK13S 78.125 nM, 1 h preincubation
  normalized UCHL3 activity: 1.004 and 0.9567 and 0.9151 and 0.8923
[2]; GK13S 156.25 nM, 1 h preincubation
  normalized UCHL3 activity: 0.9712 and 0.9475 and 0.9259 and 1.044
[2]; GK13S 312.5 nM, 1 h preincubation
  normalized UCHL3 activity: 1.024 and 0.9438 and 0.9427 and 1.0301
[2]; GK13S 625 nM, 1 h preincubation
  normalized UCHL3 activity: 1.039 and 0.9614 and 0.9134 and 1.027
[2]; GK13S 1250 nM, 1 h preincubation
  normalized UCHL3 activity: 1.008 and 0.9574 and 0.9187 and 1.016
[2]; GK13S 2500 nM, 1 h preincubation
  normalized UCHL3 activity: 0.975 and 0.9516 and 0.9328 and 0.9957
[2]; GK13S 5000 nM, 1 h preincubation
  normalized UCHL3 activity: 0.9885 and 0.924 and 0.8998 and 0.9921
[2]; GK13S 10000 nM, 1 h preincubation
  normalized UCHL3 activity: 0.972 and 0.9338 and 0.9178 and 0.9898
[2]; Supplementary Fig. 10c, 3 independent experiments, read-out: IC50 (UCHL3 wt)
  IC50: > 100 µM
